Assay results from patent US20190030005A1, “THERAPEUTIC AGENT FOR DYSLIPIDEMIA” (KOWA COMPANY, LTD., priority 2013, published 2019).

Assays:
VLDL-C = experiment: Effects of combination use of Compound A and EPA on plasma VLDL-C levels in rats; format: in vivo, Wister rats; conditions: for VLDL-C Relative value (vs Control): oral once a day, Wister rats, plasma; for Effect on VLDL-C level, in words: Compound A 0.1 mg/kg and/or EPA 200 mg/kg, single or combination administration, Dunnett's test vs control
Protocol: (§1) Wister rats (7-week old, male, Charles River Laboratories Japan Inc.) were used for the experiments. Under ad libitum feeding, the blood samples were obtained from the cervical vein, and the rats were divided into four groups (N=8) based on the plasma TG levels, plasma TC levels and the body weights. From the next day, a solvent (a 0.5% aqueous solution of methyl cellulose: […] In the afternoon of the final administration day, the blood samples were obtained under a condition of 4 hours fasting under anesthesia with pentobarbital, and the plasma VLDL-C levels were measured according to the method by Usui et al. (Usui S et al., Clin. Chem. 46, 63-72, 2000.) by high-speed liquid chromatography. Further, the TG levels were measured by an automatic analyzer, by using a measuring reagent, Qualigent TG (Sekisui Medical Co., Ltd.). The synergistic effect was determined by using Bürgi's formula (when a relative level in a group of combined use is smaller than a value of a product of a relative level of single agent A and a relative level of single agent B, then there is a synergistic effect). Group 2: 0.1 mg/kg of Compound A Group 3: 200 mg/kg of EPA Group 4: 0.1 mg/kg of Compound A and 200 mg/kg of EPA The results are shown as the mean value±standard deviation. Comparison between the control group and the drug-administration group was performed using a Dunnett's multiple comparison test, and a risk rate of less than 5% was determined to have a significant difference.

TG = experiment: Effects of combination use of Compound A and EPA on TG levels in rats; format: in vivo, Wister rats; conditions: for TG Relative value (vs Control): oral once a day, Wister rats; for Effect on TG level, in words: Compound A 0.1 mg/kg and/or EPA 200 mg/kg, single or combination administration, Dunnett's test vs control
Protocol: as §1

LDL-C = experiment: Effects of combination use of Compound A and EPA on plasma LDL-C level in Wister rats; format: in vivo; conditions: for LDL-C Relative value (vs. Control): oral once a day, Wister rats, plasma; for Effect on LDL-C level, in words: single administration of Compound A (0.1 mg/kg) or EPA, Dunnett's test vs control
Protocol: as §1, with “divided into six groups (N=8)” for “divided into four groups (N=8)”, “the plasma LDL-C levels were” for “the plasma VLDL-C levels were”, “liquid chromatography. The synergistic” for “liquid chromatography. Further, the TG levels were measured by an automatic analyzer, by using a measuring reagent, Qualigent TG (Sekisui Medical Co., Ltd.). The synergistic”, “of EPA Group 5: 3,000 mg/kg of EPA Group 6: 0.1 mg/kg of Compound A and 3,000 mg/kg of EPA The results” for “of EPA The results”, “group and drug-administration group” for “group and the drug-administration group”, “was performed by using a” for “was performed using a”

| Structure (SMILES) | VLDL-C Relative value (vs Control) (VLDL-C; Compound A 0.1 mg/kg alone) | Effect on VLDL-C level, in words (VLDL-C) | TG Relative value (vs Control) (TG; Compound A 0.1 mg/kg alone) | Effect on TG level, in words (TG) | LDL-C Relative value (vs. Control) (LDL-C; Compound A 0.1 mg/kg alone) | Effect on LDL-C level, in words (LDL-C) | VLDL-C Relative value (vs Control) (VLDL-C; EPA 200 mg/kg alone) | TG Relative value (vs Control) (TG; EPA 200 mg/kg alone) | LDL-C Relative value (vs. Control) (LDL-C; EPA 200 mg/kg alone) | LDL-C Relative value (vs. Control) (LDL-C; EPA 3000 mg/kg alone) |
| --- | --- | --- | --- | --- | --- | --- | --- | --- | --- | --- |
| CC[C@@H](Oc1cccc(CN(CCCOc2ccc(OC)cc2)c2nc3ccccc3o2)c1)C(=O)O [Compound A, (R)-2-[3-[[N-(benzoxazol-2-yl)-N-3-(4-methoxyphenoxy)propyl]aminomethyl]phenoxy]butyric acid] | 0.68 | a tendency of decreasing the level of VLDL-C was observed | 0.82 | a tendency of decreasing the level of TG was observed | 1.02 | an obvious effect on LDL-C level was not observed |  |  |  |  |
| CC/C=C\C/C=C\C/C=C\C/C=C\C/C=C\CCCC(=O)O [EPA, All-cis-5,8,11,14,17-eicosapentaenoic acid] |  | any obvious effect on VLDL-C level was not observed |  | any obvious effect on TG level was not observed |  | mild decreasing action on LDL-C level was observed | 0.92 | 1.10 | 0.84 | 0.85 |
